Measured values taken from US9145411B2, “Substituted amino-pyrimidine derivatives” (Asana Biosciences, LLC, priority 2012, dated 2015).

Tested on: pAkt(T308)
Assay: In-cell Western assay, pAkt(T308), U87MG cells
Assay type: cell-based
Conditions: Homo sapiens, U-87 MG, read-out: inhibition of pAkt(T308), IC50
Description: Cells from human prostate cancer cell line PC3 (American Type Culture Collection (ATCC), Manassas, Va. 20108 USA) were seeded at an optimal density of 22,000 cell/well in 96-well plates containing Ham's F12K medium (90 μL) and incubated overnight. The compound dilutions were carried out in 100% DMSO followed by a dilution in the medium. Test compounds were added in serial dilutions to the wells and incubated for 2 hours. The cells were washed and fixed with 4% paraformaldehyde. After incubation at room temperature for 1 hour in the dark, blocking was done for 2 hours at room temperature. […] IC50 values were calculated using a sigmoidal dose-response curve fit in GraphPad Prism® v5 software.
In-cell Western assays for pAkt(T308) and pS6RP were also carried out in a glioma cancer cell line with a PTEN null mutation (U87MG cells), in a similar manner to the protocol described above for PC3 cells, in order to assess the ability of the compounds to inhibit the Akt-pathway in a glioma cancer cell line. […] Compounds of the invention cause inhibition of pAkt(T308), pAkt(S473) and pS6RP in U87MG, BT474 and T47D cell lines as determined by these assays.

IC50: < 500 nM
SMILES: CC(=O)Nc1cccc(-c2cnc3c(N4CCOCC4)nc(-c4cnc(N)nc4)nc3c2)c1 [Example 3, N-(3-(2-(2-Aminopyrimidin-5-yl)-4-morpholinopyrido[3,2-d]pyrimidin-7-yl)-phenyl)acetamide]
